Bridges are numbered along the chain shown (N, C = ends). Where no end group is shown, it is not given here.
How the values were obtained:
[1] = system: human soluble protein kinase VEGFR-3 (sVEGFR-3); test: VEGFR-3 kinase assay ([32P]ATP, poly(Glu:Tyr); Eurofins Panlabs); format: biochemical; conditions: peptides screened at 10 μM, 0.1 μg/ml enzyme, HEPES pH 7.4, 15 min preincubation 37°C, 10 μM ATP, [γ32P]ATP, 30 min, Figure 1B
Method: Kinase assays were performed as previously described. Briefly, human soluble protein kinase VEGFR-3 (sVEGFR-3) that was expressed in insect cells was used for the kinase assays. The candidate peptides were preincubated with 0.1 μg/ml of enzyme in modified HEPES buffer pH 7.4 for 15 minutes at 37°C. The reaction was initiated by addition of 0.2 mg/ml poly(Glu:Tyr), 10 μM ATP and 0.25 μCi [γ^32P]ATP for another 30 minute incubation period and terminated by further addition of 3% H3PO4. Aliquots were removed and counted to determine the amount of [^32P] Poly(Glu:Tyr) that formed. Compounds were screened at 10 μM. All peptides were analyzed by Eurofins Panlabs Taiwan Ltd.

sVEGFR-3 = test: Competition assay of synthesized peptides with rhVEGF-C for binding to plate-bound sVEGFR-3 (ELISA); design: species or system human; conditions: sVEGFR-3 250 ng/mL coated; peptide 6 h RT, then rhVEGF-C 300 ng/mL 6 h; ELISA A450/650; mean of three independent experiments; Figure 1A
Method: Soluble VEGFR-3 (sVEGFR-3) (250 ng/mL) (Angio-Proteomie, Boston, MA) was immobilized on 96-well plates and blocked with phosphate buffer containing 1% BSA for 1 hour at room temperature. In competition experiments, peptides were incubated with the VEGFR-3-coated plates for 6 hours at room temperature. After incubation, human recombinant VEGF-C protein (rhVEGF-C, 300 ng/mL, 100 μL) was added directly to the wells without removal of the peptides and then incubated at room temperature for 6 hours. The plates were thoroughly washed with 0.1% BSA/PBS buffer (pH 8.5), and anti–VEGF-C Ab was added at 4°C for 24 hours. Biotin-conjugated goat anti-rabbit IgG antibody was added for 1 hour. HRP-conjugated streptavidin was then added for 30 minutes. The free streptavidin conjugate was washed away and freshly prepared substrate solution (TMB) was then added to each well. The reaction was allowed to stand for 15 minutes, and the color development was stopped by the addition of H3PO4 (1.0 mol/L). The absorbance at 450 nm was read with a reference wavelength of 650 nm (A450/650).

VEGFR-3 [2] = test: KIRA-ELISA of tyr-phosphorylated VEGFR-3 in VEGF-C-treated H928 lung cancer cells; format: cell-based, human; conditions: serum-starved, peptide 30 min then rhVEGF-C 15 min, Figure 1C
Method: H928 lung cancer cells (2×10^5) were cultured in 24-well plates and serum-starved for 24 hours. Cells were pretreated with candidate peptide for 30 minutes and then treated with rhVEGF-C for 15 minutes. Cells were solubilized in RIPA lysis buffer for 60 minutes. Another 85 μl of cell lysate was transferred to an ELISA well that was coated with VEGFR-3 and incubated for 2 hours. After the plates were washed, biotinylated-4G10 antibody (500 ng/ml, 100 μl) was added and incubated for 2 hours. After the plates were washed, HRP-conjugated streptavidin was then added for 30 minutes. The free avidin conjugate was washed away and freshly prepared substrate solution (TMB) was then added to each well. The reactions were allowed to proceed for 10 minutes, and the color development was stopped by the addition of H3PO4 (1.0 mol/L). The absorbance at 450 nm was read with a reference wavelength of 650 nm (A450/650).

VEGFR-3 [3] = test: Western blot of VEGF-C-induced VEGFR-3 Tyr1063/1068 phosphorylation; format: cell-based, human; conditions: A549 and 293T/VEGFR-3 cells, peptides 24 hours, rhVEGF-C, Figure 2A, 2B
Method: (§1) Cells were incubated in serum-free DMEM/F12 for 24 hours before treatment with or without rhVEGF-C (100 ng/mL). Cells were lysed in RIPA buffer [Tris-HCl (50 mM; pH 7.5), NaCl (120 mM), NP-40 (0.5%), Na3VO4 (200 mM), EDTA (100 mM), sodium deoxycholate (0.5%), SDS (1%)] for 10 minutes on ice. An equal quantity of protein from the cell lysates was resuspended in gel sample buffer, resolved by 10% SDS-PAGE, and transferred to polyvinylidene difluoride membrane membranes (Millipore Corp., Milford, MA). After blocking, membranes were incubated with specific primary antibodies and corresponding secondary antibodies. Immunoreaction signals were visualized by an enhanced chemiluminescence detection system (PerkinElmer Health Sciences, Waltham MA).

Src = test: Western blot of Src phosphorylation (VEGFR-3-mediated signaling pathway); format: cell-based, human; conditions: A549 and 293T/VEGFR-3 cells, rhVEGF-C, Figure 2A, 2B
Method: as §1

A549 lung cancer cells = test: Boyden chamber migration/invasion assay, A549; format: cell-based, human; conditions: peptide 100 μM, 24 hours, uncoated / matrigel-coated transwells, Figure 3
Method: (§2) Boyden chamber cell migration assays were performed using uncoated transwells and matrigel-coated transwells with membranes (8 μm pore-size) (Becton Dickinson, Mountain View, CA). The chambers were inserted into 24-well culture plates that contained DMEM/F12 with 10% fetal bovine serum. The cells were pretreated with peptide (100 μM) in serum-free DMEM/F12 medium and were loaded into the transwells. After 24 hours, non-migrated cells were removed with a cotton swab and the cells were fixed with methanol for 15 min and stained with crystal violet. The migrated cells were quantified by blind counting of the migrated cells on the lower surface of the membrane from at least 10 fields per chamber using a 20X objective. All migration and invasion assays were normalized to the proliferation rate.

[4] = system: MDA-MB-231 breast cancer cells; test: Boyden chamber migration/invasion assay, MDA-MB-231; format: cell-based, human; conditions: peptide 100 μM, 24 hours, uncoated / matrigel-coated transwells, Figure 3
Method: as §2

A549 cells [5] = test: VEGF-C-induced drug resistance (Taxol, cisplatin), DNA flow cytometric and trypan blue exclusion assays; format: cell-based, human; conditions: A549, rhVEGF-C, 20 nM Taxol or 10μM cisplatin 48 hours; flow cytometry (PI) and trypan blue exclusion; Figure 3E-3H
Method: Briefly, cells were treated with 20 nM Taxol or 10μM cisplatin and incubated for 48 hours. Samples were prepared and analyzed as previously described.
Briefly, cells were harvested using trypsin and stained with 0.4% trypan blue dye (Sigma-Aldrich). Trypan blue-positive and -negative cells were counted using a hemacytometer (Hausser Scientific, Horsham, PA) under a phase-contrast microscope (Fisher Scientific, Pittsburgh, PA). The results of each assay were expressed in terms of the percentage of dead cells relative to the total number of cells. Individual experiments were performed in triplicate.

A549 cells [6] = test: VEGF-C-induced drug resistance (Taxol, cisplatin), MTT assay; format: cell-based, human; conditions: A549, peptides 200 μM, rhVEGF-C 100 ng/mL, Taxol or cisplatin; Figure S3
Method: A549 lung cancer cells (3×10^3) were cultured in 96-well plates and serum-starved for 24 hours. Cells were treated with the candidate peptides (200 μM) for 4 hours and were treated with rhVEGF-C (100 ng/mL) for 6 hours in serum-free medium. After 48 hours, MTT (5 mg/ml) was added for 3 hours and the precipitates were dissolved in DMSO. The absorbance at 570 nm was read with a reference wavelength of 630 nm (A570/630).

[7] = system: lymphatic endothelia cells (LECs); test: VEGF-C-induced VEGFR-3 phosphorylation, migration and proliferation in LECs (western blot, Boyden chamber, MTT); format: cell-based, human; conditions: MTT (96 hrs), Figure 4A
[8] = system: various cancer cell lines (MDA-MB-231, BT474, HS578T, HBL100, MDA-MB-361, MCF-7, CL1-5, H460, H322); test: VEGF-C-induced VEGFR-3 phosphorylation, migration and invasion in various cancer cell lines; format: cell-based, human; conditions: various breast and lung cancer cell lines; Figure 4B-4E, Figure S4
Method: as §1
Boyden chamber cell migration assays were performed using uncoated transwells and matrigel-coated transwells with membranes (8 μm pore-size) (Becton Dickinson, Mountain View, CA). The chambers were inserted into 24-well culture plates that contained DMEM/F12 with 10% fetal bovine serum. The cells were pretreated with peptide (100 μM) in serum-free DMEM/F12 medium and were loaded into the transwells. […] The migrated cells were quantified by blind counting of the migrated cells on the lower surface of the membrane from at least 10 fields per chamber using a 20X objective. […]

A549 cells [9] = test: Sphere-forming assay (tumor initiating cells), A549; format: cell-based, human; conditions: peptide 200 μM, rhVEGF-C 200 ng/mL, 10 days non-adherent, Figure S5A
Method: (§3) A549 and MCF-7 cells were serum-starved for 24 hours. The cells were pretreated with candidate peptides (200 μM) in the presence or absence of rhVEGF-C for 24 hours. The cells were trypsinized and mechanically dissociated to generate single cells that were then seeded at a density of 1×10^3 cells/ml in serum-free DMEM/F12 medium (Invitrogen, Carlsbad, CA) that was freshly supplemented with epidermal growth factor (20 ng/ml), basic fibroblast growth factor (20 ng/ml) (R&D Systems, Minneapolis, MN), 1X B27 supplement, 1X N2 supplement (Invitrogen, Carlsbad, CA) in the presence or absence of rhVEGF-C (200 ng/mL) and candidate peptides (200 μM) in non-adherent plates for 10 days. Quantification of sphere formation was determined by measuring the percentage of 5000 spheres.

MCF-7 cells = test: Sphere-forming assay (tumor initiating cells), MCF-7; format: cell-based, human; conditions: peptide 200 μM, rhVEGF-C 200 ng/mL, 10 days non-adherent, Figure S5B
Method: as §3

SOX2 = SOX2 expression by reverse transcription PCR in A549 spheres; format: cell-based, human; conditions: A549 spheres grown 10 days; Figure S6
Method: Total RNA was isolated after A549 spheres had grown for 10 days by using Trizol (Invitrogen, Carlsbad, CA), and cDNA were synthesized with Oligo dT (Thermo Scientific, Brookfield, WI). The specific primers for SOX2 were 5'-TACAACATGATGGAGACG-3' and 5'-[…]-3'. The reaction was cycled at 95°C for 40 seconds, then 56°C for 40 seconds, and then 72°C for 30 seconds for 30 cycles followed by a final extension of 72°C for 5 minutes.

[10] = system: MDA-MB-231/VEGF-C lung metastasis; test: Experimental metastasis assay, MDA-MB-231/VEGF-C cells by tail vein, bioluminescent imaging of lung; format: in vivo; conditions: SCID mice, n=8, peptide 8 μg/g body weight i.v., one day before cells then twice weekly for 8 weeks; bioluminescence; control peptide P4; Figure 5
Method: All animal work was performed in accordance with protocols that were approved by the Institutional Animal Care and Use Committee of the National Health Research Institutes. All of the animal experiments were performed on 6- to 8-week-old CB-17 severe combined immunodeficient (SCID) female mice (supplied by LASCO, Taiwan) with eight animals per group. The control (P4), P5 and P6 peptides were pretreated with 8 μg/g body weight dissolved in 50 μl PBS and i.v. injected into mice one day before cancer cell injection. For experimental metastasis assays, 2.5 × 10^5 viable cells were resuspended in 0.1 mL of PBS and introduced into the circulation via tail vein injection. For the treatment, peptides were administered (8 μg/g body weight) twice weekly for 8 weeks. The luciferase-based, non-invasive bioluminescent imaging and analysis were performed with the Xenogen IVIS-200 system (Xenogen, Alameda, CA, USA).

| Sequence | inhibitory effects on VEGFR-3 kinase activity [1] [%] | levels of sVEGFR-3-bound VEGF-C (competition with VEGF-C binding) (sVEGFR-3) | inhibitory effects on the phosphorylation of VEGFR-3 (KIRA-ELISA) (VEGFR-3 [2]) | VEGF-C-induced VEGFR-3 Tyr1063/1068 phosphorylation (VEGFR-3 [3]) | phospho-Src levels (Src) | migration and invasion (A549 lung cancer cells) | migration and invasion [4] | VEGF-C-induced drug resistance (A549 cells [5]) | VEGF-C-induced drug resistance by MTT assay (A549 cells [6]) | VEGF-C-induced VEGFR-3 phosphorylation, cell migration and proliferation of LECs [7] | VEGF-C-induced VEGFR-3 phosphorylation, cell migration and invasion [8] | sphere formation enhanced by VEGF-C (number and size of spheres) (A549 cells [9]) | sphere formation enhanced by VEGF-C (number and size of spheres) (MCF-7 cells) | expression of SOX2 (SOX2) | VEGF-C-induced lung metastasis [10] |
| --- | --- | --- | --- | --- | --- | --- | --- | --- | --- | --- | --- | --- | --- | --- | --- |
| CLTSSLRSC (disulfide 1-9 (inferred)) [P8] | 49 |  |  |  |  |  |  |  |  |  |  |  |  |  |  |
| CNDSHMKLC (disulfide 1-9 (inferred)) [P4, used as control peptide in later assays] |  | reduced the levels of bound VEGF-C in a significant and dose-dependent manner |  |  |  |  |  |  |  |  |  |  |  |  |  |
| CNYSHLFYC (disulfide 1-9 (inferred)) [P5] | 82 | reduced the levels of bound VEGF-C in a significant and dose-dependent manner | highest inhibitory effects | dramatic suppressive effects | decreased phospho-Src levels | Obvious decreases | Obvious decreases | inhibit | inhibit | abolished | significantly inhibited | decreased the number and size of the spheres | decreased the number and size of the spheres | decreased the expression of SOX2 | significantly inhibited |
| CYYGQSKYC (disulfide 1-9 (inferred)) [P6] | 72 | reduced the levels of bound VEGF-C in a significant and dose-dependent manner | highest inhibitory effects | dramatic suppressive effects | decreased phospho-Src levels | Obvious decreases | Obvious decreases | inhibit | inhibit | abolished | significantly inhibited |  |  | decreased the expression of SOX2 | significantly inhibited |
| CYYWQSKYC (disulfide 1-9 (inferred)) [P7] | 69 |  |  |  |  |  |  |  |  |  |  |  |  |  |  |

From article PMC4116523, “Novel peptides suppress VEGFR-3 activity and antagonize VEGFR-3-mediated oncogenic effects” (Oncotarget, 2014)
